Five compounds from patent publication EP0596449A2, “Serotonin receptor antagonists for treating myocardial ischemia” (E.R. SQUIBB & SONS, INC., priority 1992, dated 1994) can be followed below.

In test [1] the test system is globally ischemic rat hearts. As to the kind of experiment: Parachlorophenylalanine pretreatment of rats, then global ischemia/reperfusion of the isolated hearts. To be noted: for time to contracture: parachlorophenylalanine pretreatment i.p., compared to vehicle, p<0.05, Figure 4. The method, then: (§1) To determine the effect of serotonin receptor agonists and antagonists, male Sprague-Dawley rats (450-550 g) were prepared as described below. The rats were anesthetized using 100 mg/kg sodium pentobarbital (i.p.). They were intubated and then treated with i.v. heparin (1000 U/kg). While being mechanically ventilated, their hearts were perfused in situ via retrograde cannulation of the aorta. The hearts were then excised and […] moved to a Langendorff apparatus where they were perfused with Krebs-henseleit bicarbonate buffer solution ((mM): 112 NaCI, 25 NaHC03, 5 KCI, 1.2 MgS04, 1 KH2P04, 1.25 CaC12, 2 pyruvate and 11.5 dextrose bubbled with 95% 02 - 5% C02) at a constant perfusion pressure (85 mm Hg). A water-filled latex balloon attached to a metal cannula was then inserted into the left ventricle and connected to a Statham pressure transducer for measurement of left ventricular pressure. The hearts were allowed to equilibrate for 15 min, at which time end diastolic pressure (EDP) was adjusted to 5 mm Hg and this balloon volume was maintained for the duration of the experiment. Pre-ischemia or pre-drug function, heart rate and coronary flow (extracorporeal electromagnetic flow probe) were then measured. Left ventricular developed pressure (LVDP) was calculated from the difference between left ventricular peak systolic pressure and EDP. Cardiac temperature was maintained throughout the experiment by submerging the hearts in 37 ° C buffer which was allowed to accumulate in a stoppered, heated chamber.
To determine if endogenous 5HT is mediating a pro-ischemic effect in isolated hearts, rats, prepared as described below were treated with parachlorophenylalanine. Parachlorophenylalanine depletes brain and peripheral 5HT by inhibition of tryptophan hydroxylase, the rate limiting step in 5HT synthesis. […] Male Sprague-Dawely rats (450-550 g) were injected with i.p. 105 mg/kg parachlorophenylalanine (n = 10) or its vehicle (water, n = 6) on three consecutive days. On the fourth day, the rats were anesthetized with 100 mg/kg sodium pentobarbital. The hearts were then excised and moved to an isolated heart apparatus as described above. The hearts were then subjected to 25 minutes to global ischemia and 30 minutes of reperfusion. Time to contracture, recovery of contractile function, coronary flow and cumulative LDH release were measured as described above.

The test system of test [2] is globally ischemic, isolated rat hearts. Kind of test: Effect of 5HT, alone or with 5HT2 antagonist, on time to contracture and pre-ischemic function in isolated rat hearts. Conditions: for Coronary Flow / HR / LVDP: pre-ischemic. How it is done: To determine the effect of serotonin receptor agonists and antagonists, male Sprague-Dawley rats (450-550 g) were prepared as described below. The rats were anesthetized using 100 mg/kg sodium pentobarbital (i.p.). They were intubated and then treated with i.v. heparin (1000 U/kg). While being mechanically ventilated, their hearts were perfused in situ via retrograde cannulation of the aorta. […] A water-filled latex balloon attached to a metal cannula was then inserted into the left ventricle and connected to a Statham pressure transducer for measurement of left ventricular pressure. […] Pre-ischemia or pre-drug function, heart rate and coronary flow (extracorporeal electromagnetic flow probe) were then measured. Left ventricular developed pressure (LVDP) was calculated from the difference between left ventricular peak systolic pressure and EDP. Cardiac temperature was maintained throughout the experiment by submerging the hearts in 37 ° C buffer which was allowed to accumulate in a stoppered, heated chamber. In another series of hearts, the effect of 5HT on the severity of ischemia was determined. […] Vehicle (0.1% DMSO) given 10 minutes before ischemia (n = 5). The hearts were subjected to global ischemia as described above and time to contracture determined. Reperfusion function and LDH release were not determined in this group.

Test [3] deals with globally ischemic rat hearts. Kind of test: Global ischemia (25 min) and reperfusion (30 min) in isolated perfused rat hearts, 5HT2 antagonists. To be noted: for EC25: Rattus norvegicus, drug given 10 minutes before global ischemia, read-out: EC25 (concentration which increased the time to contracture 25% above vehicle group values). The method, then: as §1
The model of global ischemia in isolated rat hearts was designed such that any protective effects observed are generally due to a direct cardioprotective effect and not to effects on cornonary or peripheral vascular tone. Also, because the hearts are perfused with an oxygenated buffer solution, platelets or the normal components of an inflammatory response are probably not important mediators of the ischemic/reperfusion injury observed in this model. […] Agents which exert their protective effects either through their effects on the peripheral or coronary vasculature such as nitrates or agents which act on blood or act on some component of the inflammatory response such as thromboxane A2 receptor antagonists are generally ineffective in this model.
The hearts were divided into the following groups: 1. Vehicle (0.1% DMSO) treatment beginning 10 minutes before the onset of ischemia (n = 8). 2. 0.3-10 µM ketanserin treatment beginning 10 minutes before the onset of ischemia (n = 4-5 per group). 3. 10 µM ketanserin given only during reperfusion (n = 4). 4. 0.1-10 µM cinanserin treatment beginning 10 minutes before global ischemia (n = 4-10). 5. 1-10 µM LY 53857 treatment beginning 10 minutes before the onset of ischemia (n = 4 per group). After 10 minutes of vehicle or drug pretreatment, the hearts were subjected to 25 minutes of total global ischemia which was initiated by shutting off the perfusate flow. Reperfusion was begun (without drug except in the case of group 3 above) and allowed to continue for 30 minutes. At this time, final measurements of EDP, LVDP and coronary flow were obtained. Cumulative LDH relase was measured in the reperfusate and was used as the index of cellular and membrane viability. In all hearts, the time to contracture during ischemia was measured and used as an index of cardioprotection during ischemia. Time to contracture is defined as the time (minutes) necessary for the first 5 mm Hg increase in EDP to occur during global ischemia. The data were expressed as the percent change in time to contracture from vehicle.

In another test the test system is alpha, Adrenoceptors. Kind of test: Methoxamine-induced contraction in rat aortic rings (alpha1 blocking potency). Conditions: 45 minute incubation; Figure 5A. How it is done: In order to determine the alpha1 blocking potency of cinanserin, ketanserin and LY 53857, their effect on methoxamine induced aortic constriction was determined. Male Sprague-Dawley rats were sacrificed using C02. Aortic rings (3 mm in width) were cut, denuded of endothelium by gently rolling the rings on moistened filter paper, and mounted on stainless steel hooks in 20 mL muscle chambers containing oxygenated physiological salt solution (PSS) of the following composition (in mM): 118.4 NaCI, 4.7 KCI, 1.2 MgS04, 1.2 KH2P04, 1.9 CaC12, 25.0 NaHC03, 10.1 D-glucose, and 0.01 mM Na2EDTA maintained at 37 °C. The hooks were connected to Grass FT03C transducers for recording of isometric force development. The rings were stretched to 2 g preload during the equilibration period. During equilibration the rings were periodically stimulated with 24 mM KCI to determine contractility. The effectiveness of endothelial removal was confirmed by the absence of relaxation by 1 µM acetylcholine of a contraction in response to 0.01 µM phenylephrine.
Various concentrations of the test compounds were then added to individual baths and allowed a 45 minute incubation before cumulative concentration response curves for methoxamine (1 nM-30 /1.M) were obtained. Solvent controls were run in parallel. […]

[4] abbreviates: i.p. 105 mg/kg on three consecutive days, 30 Min. Post-Ischemia.
Where [5] appears, read: i.p. 105 mg/kg on three consecutive days, Pre-Ischemia.
The mark [6] stands for this setting: 30 μM 5HT + 1 μM Cinanserin, Post-Drug.
Setting [7] is: 30 μM 5HT + 1 μM Cinanserin, Pre-Drug.

Entries after “also recorded” stand apart in the source; their conditions may differ. Marks after values point to notes of the source that are not given here.

For `N[C@@H](Cc1ccc(Cl)cc1)C(=O)O` (racemic) [PCPA, parachlorophenylalanine], in test [1] (setting [4]), the “Coronary Flow” value was 18±2^b mL/min/g, the HR is reported as 275±8^b beats/min and the LVDP was 60±7^a,b mmHg. In test [1] (i.p. 105 mg/kg on three consecutive days, 30 Min. Post-Ischemia (during reperfusion)), the “LDH Release” value was 15±2^b u/g. Further, in test [1] (setting [5]), the “Coronary Flow” value came out at 18 ± 1 mL/min/g, the HR is listed as 271±8 beats/min and the LVDP was 128±11 mmHg. The time to contracture result in test [1] (listed as Parachlorophenylalanine) is “significantly increased time to contracture”. In addition, in test [1] (listed as parachlorophenylalanine), the time to contracture result is “significantly incareased the time to contracture”.
For `NCCc1c[nH]c2ccc(O)cc12` [5HT, serotonin], the “Coronary Flow” value in test [2] (1 μM 5HT, Post-Drug) came to 16 ± 1 mL/min/g; in test [2] (1 μM 5HT, Pre-Drug), 16 ± 1 mL/min/g; in test [2] (10 μM 5HT, Post-Drug), 20 ± 2 mL/min/g; in test [2] (10 μM 5HT, Pre-Drug) it was 19 ± 2 mL/min/g; in test [2] (30 μM 5HT, Post-Drug), 14 ± 1 mL/min/g; in test [2] (30 μM 5HT, Pre-Drug), 16 ± 1 mL/min/g. The “Coronary Flow” value in test [2] (100 μM 5HT, Post-Drug) was 15 ± 3 mL/min/g; in test [2] (100 μM 5HT, Pre-Drug), 16 ± 2 mL/min/g. The HR was 276±5 beats/min in test [2] (1 μM 5HT, Post-Drug); 273±7 beats/min in test [2] (1 μM 5HT, Pre-Drug); 294±11 beats/min in test [2] (10 μM 5HT, Post-Drug); 300±7 beats/min in test [2] (10 μM 5HT, Pre-Drug); 319±20 beats/min in test [2] (30 μM 5HT, Post-Drug); 281±15 beats/min in test [2] (30 μM 5HT, Pre-Drug). Also, the HR is recorded as 369±19^a,b beats/min in test [2] (100 μM 5HT, Post-Drug) and 298±10 beats/min in test [2] (100 μM 5HT, Pre-Drug). In addition, the LVDP is 141±3 mmHg in test [2] (1 μM 5HT, Post-Drug); 145±4 mmHg in test [2] (1 μM 5HT, Pre-Drug); 132±7 mmHg in test [2] (10 μM 5HT, Post-Drug); 135±4 mmHg in test [2] (10 μM 5HT, Pre-Drug); 103±11 mmHg in test [2] (30 μM 5HT, Post-Drug); 117±5 mmHg in test [2] (30 μM 5HT, Pre-Drug). Further, the LVDP in test [2] (100 μM 5HT, Post-Drug) is on record as 88±8^a,b mmHg; in test [2] (100 μM 5HT, Pre-Drug), 121±8 mmHg. Also, the “effect on the severity of ischemia (time to contracture)” value in test [2] (1 and 10 µM concentrations) is recorded as “without any measurable effect”. Further, the time to contracture entry in test [2] (at 30 and 100µM, compared to vehicle, p<0.05, Figure 3) is “significantly reduced time to contracture”; in test [2] (at >30 µM) it was “significantly decrease time to contracture”.
On to `CN(C)CCCSc1ccccc1NC(=O)/C=C/c1ccccc1` [Cinanserin, cinanserin], for which the “reperfusion LDH release” value in test [3] (1-10 µM, compared to vehicle, Figure 2A) is “Significant reductions in LDH”. For the same compound, the EC25 in test [3] was 1.6 µM. For the same compound, in test [2] (setting [6]), the “Coronary Flow” value stood at 18 ± 1 mL/min/g, the HR is 340±11^a,b beats/min and the LVDP is listed as 122±5 mmHg. For the same compound, in test [2] (setting [7]), the “Coronary Flow” value was 19 ± 1 mL/min/g, the HR came to 297±9 beats/min and the LVDP turned out to be 139±7 mmHg. Also, in test [2] (30 µM 5HT plus antagonist, both given 10 minutes before ischemia, Figure 3), the “effect on the pro-ischemic effect of 5HT (time to contracture)” value is on record as “completely abolished this pro-ischemic effect; also recorded: abolished the pro-ischemic effect of serotonin”.
As for `CC(O)C(C)OC(=O)C1CC2c3cccc4c3c(cn4C(C)C)CC2N(C)C1` (stereo not drawn) [LY 53857], the “Coronary Flow” value in test [3] (1 µM, 30 Min Post-Reperfusion) was 12±1^a mL/min/g; in test [3] (1 µM, Pre-Ischemia, Post-Drug), 15 ± 1 mL/min/g; in test [3] (1 µM, Pre-Ischemia, Pre-Drug) it was 17 ± 1 mL/min/g; in test [3] (3 µM, 30 Min Post-Reperfusion), 13±1^a mL/min/g; in test [3] (3 µM, Pre-Ischemia, Post-Drug) it was 17 ± 1 mL/min/g; in test [3] (3 µM, Pre-Ischemia, Pre-Drug) it was 17 ± 1 mL/min/g. The “Coronary Flow” value stood at 15 ± 3 mL/min/g in test [3] (10 µM, 30 Min Post-Reperfusion); 21 ± 3 mL/min/g in test [3] (10 µM, Pre-Ischemia, Post-Drug); 20 ± 3 mL/min/g in test [3] (10 µM, Pre-Ischemia, Pre-Drug). The HR in test [3] (1 µM, 30 Min Post-Reperfusion) was 230±25 beats/min; in test [3] (1 µM, Pre-Ischemia, Post-Drug), 257±6 beats/min; in test [3] (1 µM, Pre-Ischemia, Pre-Drug), 270±5 beats/min; in test [3] (3 µM, 30 Min Post-Reperfusion) it was 240±13 beats/min; in test [3] (3 µM, Pre-Ischemia, Post-Drug), 265±8 beats/min; in test [3] (3 µM, Pre-Ischemia, Pre-Drug) it was 274±5 beats/min. The HR was 250±4 beats/min in test [3] (10 µM, 30 Min Post-Reperfusion); 252±12^a beats/min in test [3] (10 µM, Pre-Ischemia, Post-Drug); 288±10 beats/min in test [3] (10 µM, Pre-Ischemia, Pre-Drug). For the same compound, the LVDP was 23±5^a mmHg in test [3] (1 µM, 30 Min Post-Reperfusion); 132±6 mmHg in test [3] (1 µM, Pre-Ischemia, Post-Drug); 141±4 mmHg in test [3] (1 µM, Pre-Ischemia, Pre-Drug); 73±7^a,b mmHg in test [3] (3 µM, 30 Min Post-Reperfusion); 144±6 mmHg in test [3] (3 µM, Pre-Ischemia, Post-Drug); 148±6 mmHg in test [3] (3 µM, Pre-Ischemia, Pre-Drug). The LVDP is given as 86±6^a,b mmHg in test [3] (10 µM, 30 Min Post-Reperfusion); 123±5 mmHg in test [3] (10 µM, Pre-Ischemia, Post-Drug); 130±5 mmHg in test [3] (10 µM, Pre-Ischemia, Pre-Drug). Besides, the EC25 in test [3] was 6.1 µM. The “reperfusion LDH release” value in test [3] (at 3 and 10 µM concentrations, Figure 2C) is listed as “significantly reduced it”.
In the case of `COc1cc2nc(N3CCN(C(=O)c4ccco4)CC3)nc(N)c2cc1OC` [prazosin], in the test with alpha, Adrenoceptors, the “concentration from which the methoxamine-tension curve was shifted to the right” value was determined as 1 nM.
